Some test systems named below: SK-MEL-2 melanoma; NCI-H23 lung; 786-0 renal; LOX IMVI melanoma; MDA-MB-435; CCRF-CEM leukemia; OVCAR-5 ovarian; M14 melanoma; TK-10 renal; EKVX NSCLC.
Assay in all cases: growth of human tumour cells (NCI), 48 h

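The compound was tested at five concentrations on cells cultured in 96-well plates, with a 48-hour exposure period. GI50: concentration for 50% inhibition of growth. The concentration for full growth arrest is given as TGI.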

With `O=[N+]([O-])c1ccc(Sc2cccc[n+]2[O-])c2nonc12`, the GI50 in the assay on SK-MEL-2 melanoma was 13.5 µM; with NCI-H23 lung, 7.97 µM; in the assay on 786-0 renal, 9.18 µM; in the assay on LOX IMVI melanoma, 3.28 µM; with MDA-MB-435 it was 6.24 µM; in the assay with CCRF-CEM leukemia, 1.42 µM. Also, the GI50 with OVCAR-5 ovarian was 4.32 µM; in the assay on M14 melanoma, 4.32 µM; with TK-10 renal, 8.41 µM; in the assay on EKVX NSCLC, 9.59 µM. Besides, the TGI with SK-MEL-2 melanoma was determined as 36.3 µM; in the assay on NCI-H23 lung it was 26.8 µM; in the assay with 786-0 renal, 22.3 µM; in the assay on LOX IMVI melanoma it was 11.7 µM; with MDA-MB-435 it was 20.1 µM; in the assay with OVCAR-5 ovarian, 17.9 µM. For the same molecule, the values for the TGI in the assay on M14 melanoma, with TK-10 renal and with EKVX NSCLC were 16.4 µM, 20.8 µM and 31.7 µM, respectively.

`COc1ccc2[nH]c3c(C)c4c(c(C)c3c2c1)CN(C)C=C4`: the TGI in the assay on SK-MEL-2 melanoma worked out at 9.8 µM; in the assay with NCI-H23 lung it was 3.28 µM; with 786-0 renal, 4.05 µM; with LOX IMVI melanoma, 28.1 µM; in the assay with MDA-MB-435, 71.2 µM; in the assay on CCRF-CEM leukemia it was 34.7 µM. Further, the TGI in the assay with OVCAR-5 ovarian was determined as 47 µM; in the assay with M14 melanoma, 22.7 µM; in the assay with TK-10 renal, 65.8 µM; with EKVX NSCLC, 38.8 µM.

`O=C(O)/C=C/c1c2ccc(=O)c(O)c-2oc2c(O)c(O)ccc12`: the TGI was greater than 100 µM in the assay with SK-MEL-2 melanoma; greater than 100 µM with NCI-H23 lung; 54.9 µM in the assay with 786-0 renal; 62.2 µM in the assay on LOX IMVI melanoma; 33.5 µM in the assay with MDA-MB-435; 23.2 µM with CCRF-CEM leukemia. Further, the TGI in the assay with OVCAR-5 ovarian, in the assay on M14 melanoma, in the assay with TK-10 renal and in the assay with EKVX NSCLC was greater than 100 µM each time.

With `CCN1C(=O)N(CC)C2C1NN=c1s/c(=C3\C(=O)Nc4ccccc43)c(=O)n12` (centres undefined), the GI50 with SK-MEL-2 melanoma is 1.34 µM; in the assay with NCI-H23 lung it was 0.752 µM; in the assay with 786-0 renal, 0.588 µM; in the assay on LOX IMVI melanoma it was 0.625 µM; with MDA-MB-435, 0.147 µM; in the assay with CCRF-CEM leukemia it was 0.385 µM. Also, the GI50 was 2.31 µM in the assay on OVCAR-5 ovarian, 0.33 µM with M14 melanoma, 9.37 µM in the assay on TK-10 renal and 2.12 µM in the assay with EKVX NSCLC. For the same molecule, the TGI is 30 µM in the assay on SK-MEL-2 melanoma; 24 µM in the assay with NCI-H23 lung; 24.6 µM with 786-0 renal; 29.2 µM in the assay on LOX IMVI melanoma; 0.357 µM in the assay with MDA-MB-435; 27.1 µM with CCRF-CEM leukemia. In addition, the TGI with OVCAR-5 ovarian was greater than 100 µM; in the assay on M14 melanoma it was 3.36 µM; in the assay with TK-10 renal, 32.6 µM; in the assay on EKVX NSCLC, greater than 100 µM.

Regarding `NCC(=O)Nc1ccc(Cl)cc1C(=O)c1ccc[nH]1`, the TGI in the assay on SK-MEL-2 melanoma was greater than 100 µM; in the assay with NCI-H23 lung it was greater than 100 µM; with 786-0 renal, greater than 100 µM; with LOX IMVI melanoma, greater than 100 µM; in the assay on MDA-MB-435, greater than 100 µM; in the assay on CCRF-CEM leukemia, 22.5 µM. The TGI in the assay with OVCAR-5 ovarian, in the assay with M14 melanoma, with TK-10 renal and with EKVX NSCLC was greater than 100 µM in each case.

As for `O=NNc1ccc(-c2ccccc2)cn1`, the TGI in the assay on SK-MEL-2 melanoma was 52 µM; with NCI-H23 lung, 25.2 µM; with 786-0 renal, greater than 39.2 µM; with LOX IMVI melanoma it was 28.8 µM; in the assay with MDA-MB-435 it was 30.9 µM; in the assay with CCRF-CEM leukemia it was greater than 100 µM. The TGI with OVCAR-5 ovarian was greater than 77.4 µM; with M14 melanoma, 39.2 µM; with TK-10 renal, 69 µM; with EKVX NSCLC, greater than 51.2 µM.

Regarding `O=S(=O)(F)Cc1ccccc1`, the TGI with SK-MEL-2 melanoma, in the assay with NCI-H23 lung, with 786-0 renal, in the assay with LOX IMVI melanoma, in the assay on MDA-MB-435 and in the assay on CCRF-CEM leukemia was greater than 100 µM in each case. Further, the TGI in the assay with OVCAR-5 ovarian, in the assay on M14 melanoma, with TK-10 renal and with EKVX NSCLC was greater than 100 µM each time.

Consider `O=C1c2ccccc2C(=O)c2c1ccc1conc21`, for which the TGI with SK-MEL-2 melanoma came out at 7.14 µM; in the assay with NCI-H23 lung, 3.3 µM; with 786-0 renal, 5.79 µM; with LOX IMVI melanoma it was 1.78 µM; in the assay on MDA-MB-435, 1.37 µM; in the assay on CCRF-CEM leukemia it was 71.1 µM. For the same molecule, the TGI in the assay with OVCAR-5 ovarian amounted to 6.93 µM; with M14 melanoma, 5.7 µM; in the assay on TK-10 renal, 15.3 µM; in the assay with EKVX NSCLC, 3.87 µM.

Values taken from PubChem BioAssay (NCI).
